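Five concentrations, 48 hours, 96-well plates. GI50 = concentration required for 50% inhibition of growth.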 Calls of active or inactive are those of the source. Rule as the data show it: active = GI50 up to about 1.1 µM and inactive = higher.
Experiments:
Assay in all cases: NCI anticancer screen, dose series, 48 h
Malme-3M = tested on: Malme-3M
NCI-H226 = tested on: NCI-H226
UACC-257 = tested on: UACC-257
UACC-62 = tested on: UACC-62
CAKI-1 = tested on: CAKI-1
SF-539 = tested on: SF-539
RXF 393 = tested on: RXF 393
HOP-62 = tested on: HOP-62
T47D = tested on: T47D
HCT-116 = tested on: HCT-116
SF-295 = tested on: SF-295
BT-549 = tested on: BT-549
Hs-578T = tested on: Hs-578T
NCI-H522 = tested on: NCI-H522
NCI-H460 = tested on: NCI-H460
786-0 = tested on: 786-0
MOLT-4 = tested on: MOLT-4
MDA-N = tested on: MDA-N
K562 = tested on: K562
NCI/ADR-RES = tested on: NCI/ADR-RES
A498 = tested on: A498
HCT-15 = tested on: HCT-15
SK-MEL-5 = tested on: SK-MEL-5
SW-620 = tested on: SW-620
SN12C = tested on: SN12C
TK-10 = tested on: TK-10
SF-268 = tested on: SF-268
SR = tested on: SR
OVCAR-3 = tested on: OVCAR-3
KM12 = tested on: KM12
HOP-92 = tested on: HOP-92
CCRF-CEM = tested on: CCRF-CEM
ACHN = tested on: ACHN
SK-MEL-28 = tested on: SK-MEL-28
COLO 205 = tested on: COLO 205
SNB-19 = tested on: SNB-19
OVCAR-4 = tested on: OVCAR-4
NCI-H23 = tested on: NCI-H23
RPMI-8226 = tested on: RPMI-8226
IGROV-1 = tested on: IGROV-1
MDA-MB-231 = tested on: MDA-MB-231
SK-MEL-2 = tested on: SK-MEL-2
U-251 = tested on: U-251
HCC 2998 = tested on: HCC 2998
PC-3 = tested on: PC-3
OVCAR-8 = tested on: OVCAR-8
DU-145 = tested on: DU-145
M14 = tested on: M14
LOX IMVI = tested on: LOX IMVI
EKVX = tested on: EKVX
UO-31 = tested on: UO-31
OVCAR-5 = tested on: OVCAR-5
HT-29 = tested on: HT-29
SK-OV-3 = tested on: SK-OV-3
A549 = tested on: A549
HL-60 = tested on: HL-60
MCF7 = tested on: MCF7
MDA-MB-435 = tested on: MDA-MB-435
SNB-75 = tested on: SNB-75

Measured: GI50

CC[C@@]1(O)C(=O)OCc2c1cc1n(c2=O)Cc2c-1nc1ccccc1c2/C=N\NC(=O)C(N)CO (stereo not given in full)
inactive: Malme-3M 9.04 µM | UACC-257 3.59 µM | RXF 393 1.14 µM | BT-549 2.56 µM | Hs-578T > 67.9 µM | NCI-H522 1.28 µM | MDA-N 6.52 µM | A498 1.65 µM | SW-620 1.62 µM | TK-10 > 60.7 µM | OVCAR-3 16.2 µM | KM12 5.92 µM | HOP-92 1.87 µM | SK-MEL-28 19.2 µM | COLO 205 32.1 µM | OVCAR-4 14.2 µM | RPMI-8226 1.13 µM | IGROV-1 7.59 µM | MDA-MB-231 28.4 µM | SK-MEL-2 32.4 µM | HCC 2998 12.1 µM | PC-3 2.2 µM | EKVX 18.8 µM | OVCAR-5 13.4 µM | HT-29 2.86 µM | SK-OV-3 2.36 µM | MDA-MB-435 4.25 µM
4.1 µM: HCT-15
active: NCI-H226 0.627 µM | UACC-62 < 0.0395 µM | CAKI-1 0.408 µM | SF-539 0.138 µM | HOP-62 0.201 µM | T47D 0.239 µM | HCT-116 1.02 µM | SF-295 0.505 µM | NCI-H460 0.184 µM | 786-0 0.34 µM | MOLT-4 0.0466 µM | K562 1.05 µM | NCI/ADR-RES 0.785 µM | SK-MEL-5 0.684 µM | SN12C 0.182 µM | SF-268 0.0643 µM | SR 0.0386 µM | CCRF-CEM 0.0474 µM | ACHN 0.191 µM | SNB-19 0.202 µM | NCI-H23 0.371 µM | U-251 0.232 µM | OVCAR-8 0.596 µM | DU-145 0.379 µM | M14 0.492 µM | LOX IMVI 0.329 µM | UO-31 0.667 µM | A549 1.05 µM | HL-60 0.335 µM | MCF7 0.27 µM

O=C(/C=C/c1cccc(Oc2ccccc2)c1)NCc1ccc(C(=O)NCCc2ccccc2)cc1
> 100 µM: HCT-15
inactive: Malme-3M > 100 µM | NCI-H226 > 100 µM | UACC-257 > 100 µM | UACC-62 > 100 µM | CAKI-1 > 100 µM | SF-539 14.8 µM | RXF 393 20 µM | HOP-62 27.2 µM | T47D > 100 µM | HCT-116 > 100 µM | SF-295 > 100 µM | BT-549 > 100 µM | Hs-578T > 100 µM | NCI-H522 75 µM | NCI-H460 > 100 µM | 786-0 24.1 µM | MOLT-4 > 100 µM | MDA-N > 100 µM | K562 > 100 µM | NCI/ADR-RES > 100 µM | A498 > 100 µM | SK-MEL-5 > 100 µM | SW-620 > 100 µM | SN12C > 100 µM | TK-10 > 100 µM | SF-268 33.5 µM | SR > 100 µM | OVCAR-3 > 100 µM | KM12 > 100 µM | HOP-92 > 100 µM | ACHN > 100 µM | SK-MEL-28 > 100 µM | COLO 205 > 100 µM | SNB-19 29.9 µM | OVCAR-4 58.5 µM | NCI-H23 43.7 µM | RPMI-8226 > 100 µM | IGROV-1 > 100 µM | MDA-MB-231 82.4 µM | SK-MEL-2 > 100 µM | U-251 35 µM | HCC 2998 > 100 µM | PC-3 > 100 µM | OVCAR-8 24.8 µM | DU-145 > 100 µM | M14 > 100 µM | LOX IMVI > 100 µM | EKVX > 100 µM | UO-31 > 100 µM | OVCAR-5 > 100 µM | HT-29 16.9 µM | SK-OV-3 > 100 µM | SNB-75 29.4 µM | A549 > 100 µM | MCF7 > 100 µM | MDA-MB-435 > 100 µM

Reference: ChEMBL document CHEMBL1201862, “PubChem BioAssay data set” (2004)
